Measurements: patent publication US10202361B2, “Pyridazinones as herbicides” (E I DU PONT DE NEMOURS AND COMPANY, priority 2014, dated 2019)

Tests used:
Experiment in all cases: Test D pre-/postemergence controlled growth environment herbicide test
Assay type in all cases: in vivo
Conditions in all cases: scale 0 to 100
[1] = tested on: speedwell (bird's-eye speedwell, Veronica persica)
How it was run: (§1)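 Ratings come from visual comparison with untreated plants on a 0–100 scale, 0 meaning no effect. Test chemicals in surfactant-containing solvent were applied either to soil at planting (silt loam) or over foliage of 2–18 cm plants in peat-based medium, then held 14–21 d in a controlled growth environment.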

[2] = tested on: barley, spring (spring barley, Hordeum vulgare)
How it was run: as §1

[3] = tested on: wheat, winter (winter wheat, Triticum aestivum)
How it was run: as §1

[4] = tested on: barley, winter (winter barley, Hordeum vulgare)
How it was run: as §1

[5] = tested on: downy bromegrass (Bromus tectorum)
How it was run: as §1

[6] = tested on: deadnettle (henbit deadnettle, Lamium amplexicaule)
How it was run: as §1

[7] = tested on: canarygrass (Phalaris minor)
How it was run: as §1

[8] = tested on: windgrass (Apera spica-venti)
How it was run: as §1

[9] = tested on: field violet (Viola arvensis)
How it was run: as §1

[10] = tested on: lambsquarters (Chenopodium album)
How it was run: as §1

[11] = tested on: buckwheat, wild (wild buckwheat, Polygonum convolvulus)
How it was run: as §1

`Cc1cc(=O)n(-c2ccc(C(F)(F)F)cc2)nc1Cc1ccnc(C(F)(F)F)c1` [Compound 2, 5-methyl-2-[4-(trifluoromethyl)phenyl]-6-[[2-(trifluoromethyl)-4-pyridinyl]methyl]-3(2H)-pyridazinone] gave a Plant response rating ([1]; Postemergence, 31 g ai/ha) of 100, a Plant response rating ([1]; Postemergence, 62 g ai/ha) of 100 and a Plant response rating ([1]; Postemergence, 125 g ai/ha) of 100. For the same molecule, the Plant response rating ([1]; Postemergence, 250 g ai/ha) was 100, the Plant response rating ([1]; Postemergence, 500 g ai/ha) was 100 and the Plant response rating ([1]; Preemergence, 31 g ai/ha) was 100. The Plant response rating ([1]; Preemergence, 62 g ai/ha) was 100, the Plant response rating ([1]; Preemergence, 125 g ai/ha) was 100 and the Plant response rating ([1]; Preemergence, 250 g ai/ha) was 100. The Plant response rating ([1]; Preemergence, 500 g ai/ha) was 100, the Plant response rating ([2]; Postemergence, 31 g ai/ha) was 10 and the Plant response rating ([2]; Postemergence, 62 g ai/ha) was 10. For the same molecule, the Plant response rating ([2]; Postemergence, 125 g ai/ha) was 10, the Plant response rating ([2]; Postemergence, 250 g ai/ha) was 15 and the Plant response rating ([2]; Postemergence, 500 g ai/ha) was 25. The Plant response rating ([2]; Preemergence, 31 g ai/ha) was 0, the Plant response rating ([2]; Preemergence, 62 g ai/ha) was 0 and the Plant response rating ([2]; Preemergence, 125 g ai/ha) was 0. For the same molecule, the Plant response rating ([2]; Preemergence, 250 g ai/ha) was 25, the Plant response rating ([2]; Preemergence, 500 g ai/ha) was 50 and the Plant response rating ([3]; Postemergence, 31 g ai/ha) was 10. The Plant response rating ([3]; Postemergence, 62 g ai/ha) was 10, the Plant response rating ([3]; Postemergence, 125 g ai/ha) was 15 and the Plant response rating ([3]; Postemergence, 250 g ai/ha) was 15. It also gave a Plant response rating ([3]; Postemergence, 500 g ai/ha) of 20, a Plant response rating ([3]; Preemergence, 31 g ai/ha) of 0 and a Plant response rating ([3]; Preemergence, 62 g ai/ha) of 0. For the same molecule, the Plant response rating ([3]; Preemergence, 125 g ai/ha) was 30, the Plant response rating ([3]; Preemergence, 250 g ai/ha) was 40 and the Plant response rating ([3]; Preemergence, 500 g ai/ha) was 45. It also gave a Plant response rating ([4]; Postemergence, 31 g ai/ha) of 10, a Plant response rating ([4]; Postemergence, 62 g ai/ha) of 15 and a Plant response rating ([4]; Postemergence, 125 g ai/ha) of 15. The Plant response rating ([4]; Postemergence, 250 g ai/ha) was 20, the Plant response rating ([4]; Postemergence, 500 g ai/ha) was 25 and the Plant response rating ([4]; Preemergence, 31 g ai/ha) was 0. For the same molecule, the Plant response rating ([4]; Preemergence, 62 g ai/ha) was 0, the Plant response rating ([4]; Preemergence, 125 g ai/ha) was 30 and the Plant response rating ([4]; Preemergence, 250 g ai/ha) was 30. The Plant response rating ([4]; Preemergence, 500 g ai/ha) was 50, the Plant response rating ([5]; Postemergence, 31 g ai/ha) was 10 and the Plant response rating ([5]; Postemergence, 62 g ai/ha) was 30. For the same molecule, the Plant response rating ([5]; Postemergence, 125 g ai/ha) was 30, the Plant response rating ([5]; Postemergence, 250 g ai/ha) was 40 and the Plant response rating ([5]; Postemergence, 500 g ai/ha) was 45. The Plant response rating ([5]; Preemergence, 31 g ai/ha) was 0, the Plant response rating ([5]; Preemergence, 62 g ai/ha) was 0 and the Plant response rating ([5]; Preemergence, 125 g ai/ha) was 0. The Plant response rating ([5]; Preemergence, 250 g ai/ha) was 20, the Plant response rating ([5]; Preemergence, 500 g ai/ha) was 25 and the Plant response rating ([6]; Postemergence, 31 g ai/ha) was 40. For the same molecule, the Plant response rating ([6]; Postemergence, 62 g ai/ha) was 40, the Plant response rating ([6]; Postemergence, 125 g ai/ha) was 70 and the Plant response rating ([6]; Postemergence, 250 g ai/ha) was 75. The Plant response rating ([6]; Postemergence, 500 g ai/ha) was 90, the Plant response rating ([6]; Preemergence, 31 g ai/ha) was 100 and the Plant response rating ([6]; Preemergence, 62 g ai/ha) was 100. The Plant response rating ([6]; Preemergence, 125 g ai/ha) was 100, the Plant response rating ([6]; Preemergence, 250 g ai/ha) was 100 and the Plant response rating ([6]; Preemergence, 500 g ai/ha) was 100. It also gave a Plant response rating ([7]; Postemergence, 31 g ai/ha) of 20, a Plant response rating ([7]; Postemergence, 62 g ai/ha) of 20 and a Plant response rating ([7]; Postemergence, 125 g ai/ha) of 20. It also gave a Plant response rating ([7]; Postemergence, 250 g ai/ha) of 20, a Plant response rating ([7]; Postemergence, 500 g ai/ha) of 25 and a Plant response rating ([7]; Preemergence, 31 g ai/ha) of 0. The Plant response rating ([7]; Preemergence, 62 g ai/ha) was 25, the Plant response rating ([7]; Preemergence, 125 g ai/ha) was 40 and the Plant response rating ([7]; Preemergence, 250 g ai/ha) was 40. It also gave a Plant response rating ([7]; Preemergence, 500 g ai/ha) of 85, a Plant response rating ([8]; Postemergence, 31 g ai/ha) of 10 and a Plant response rating ([8]; Postemergence, 62 g ai/ha) of 15. It also gave a Plant response rating ([8]; Postemergence, 125 g ai/ha) of 20, a Plant response rating ([8]; Postemergence, 250 g ai/ha) of 25 and a Plant response rating ([8]; Postemergence, 500 g ai/ha) of 35. The Plant response rating ([8]; Preemergence, 31 g ai/ha) was 20, the Plant response rating ([8]; Preemergence, 62 g ai/ha) was 50 and the Plant response rating ([8]; Preemergence, 125 g ai/ha) was 60. For the same molecule, the Plant response rating ([8]; Preemergence, 250 g ai/ha) was 95, the Plant response rating ([8]; Preemergence, 500 g ai/ha) was 100 and the Plant response rating ([9]; Postemergence, 31 g ai/ha) was 50. It also gave a Plant response rating ([9]; Postemergence, 62 g ai/ha) of 90, a Plant response rating ([9]; Postemergence, 125 g ai/ha) of 100 and a Plant response rating ([9]; Postemergence, 250 g ai/ha) of 100. The Plant response rating ([9]; Postemergence, 500 g ai/ha) was 100, the Plant response rating ([9]; Preemergence, 31 g ai/ha) was 60 and the Plant response rating ([9]; Preemergence, 62 g ai/ha) was 80. It also gave a Plant response rating ([9]; Preemergence, 125 g ai/ha) of 90, a Plant response rating ([9]; Preemergence, 250 g ai/ha) of 100 and a Plant response rating ([9]; Preemergence, 500 g ai/ha) of 100. For the same molecule, the Plant response rating ([10]; Postemergence, 31 g ai/ha) was 20, the Plant response rating ([10]; Postemergence, 62 g ai/ha) was 20 and the Plant response rating ([10]; Postemergence, 125 g ai/ha) was 40. The Plant response rating ([10]; Postemergence, 250 g ai/ha) was 80, the Plant response rating ([10]; Postemergence, 500 g ai/ha) was 90 and the Plant response rating ([10]; Preemergence, 31 g ai/ha) was 20. It also gave a Plant response rating ([10]; Preemergence, 62 g ai/ha) of 75, a Plant response rating ([10]; Preemergence, 125 g ai/ha) of 75 and a Plant response rating ([10]; Preemergence, 250 g ai/ha) of 90. The Plant response rating ([10]; Preemergence, 500 g ai/ha) was 90, the Plant response rating ([11]; Postemergence, 31 g ai/ha) was 20 and the Plant response rating ([11]; Postemergence, 62 g ai/ha) was 30. The Plant response rating ([11]; Postemergence, 125 g ai/ha) was 50, the Plant response rating ([11]; Postemergence, 250 g ai/ha) was 70 and the Plant response rating ([11]; Postemergence, 500 g ai/ha) was 80. It also gave a Plant response rating ([11]; Preemergence, 31 g ai/ha) of 0, a Plant response rating ([11]; Preemergence, 62 g ai/ha) of 20 and a Plant response rating ([11]; Preemergence, 125 g ai/ha) of 25. For the same molecule, the Plant response rating ([11]; Preemergence, 250 g ai/ha) was 100 and the Plant response rating ([11]; Preemergence, 500 g ai/ha) was 100.
